“And” between values parts separate entries of the source, which are not always exact repeats. Equal values may be shown once.
Tested on: patients suffering from Alzheimer's disease
Test: Clinical trial of dimebon tablets, inventors' scale (E. E. Bukatina et al.; 0 = absence of a symptom, 4 = greatest manifestation)
Type: in vivo, human
Settings: for Degree of irritability, M +/− m: mean of 7 patients having this symptom; for Values of cognitive functions, M +/− m: mean of 7 patients with unprofound dementia; for Marked depressive manifestation, M +/− m: mean of 8 patients with evident depression prior to treatment; for Intensity of headache, M +/− m: mean of 10 patients having this symptom; for number of patients with abatement or complete cessation of headaches / share of patients with abatement or complete cessation of headaches: of 10 patients
Protocol: The test was carried out under the direct supervision by two of the inventors, namely E. E. Bukatina and V. Grigorieva, in 14 patients who agreed to take part in the tests, 13 of whom lived in a boarding house for senile persons and one patient lived with their family.
Alzheimer's disease was diagnosed on the basis of criteria ICD-10 NINCDS ADRDA.
Dimebon in the form of tablets (comprising 10 mg of dimebon, 30 mg of lactose, 5 mg of magnesium stearate was prescribed for oral administration in a dose of 0.02 g three to times a day. The patients living in the boarding house received dimebon for 58 days. A patient (observation 14) who was under outpatient observation continued taking the agent for a month after the completion of the tests.
Before the treatment with dimebon, and at 4 and 8 weeks after treatment the patients were examined according to Hazegawa's scale and the inventors' scale (“Social and Clinical Psychiatry”, 1992, No.4, pp.29–37) which includes the following indexes: (1) orientation in locality, time, immediate surroundings and one's own personality; (2) orientation in space; (3) memory for the past; (4) memory for the present; (5) “life in the past”; (6) (a) articulation, (b) difficulty in finding words, and distortion of words; (c) naming of objects; (d) following instructions; (7) concentration (of attention); (8) an affective sphere; (a) high spirits, (b) low spirits; (9) delirium; (10) hearing hallucinations; (11) visual hallucinations; (12) senile or senile-like confusion (when motion anxiety is accompanied by the revival of the past experience); (13) irritability; (14) anxiety; (15) asthenia; (16) headaches; (17) dizziness; (18) tearfulness; (19) spontaneous activity; (20) elementary self-service; and (21 control of sphincters.
According to the Hazegawa's scale, the 0 score indicates the poorest result; on the contrary, according to the inventors' scale, the 0 score indicates the absence of a symptom 4 score indicates the greatest manifestation thereof. […] Before the therapy was started, the patients had been independently examined by two doctors who used the inventors' scale. The examination during the treatment was carried out by the doctors using both the scales. The evaluation according to all the inventors' scale points during all the tests and their variations during the treatment with dimebon are given in the Appendix.
According to the inventors' scale, the degree of the disturbance if the cognitive functions was determined by a sum of evaluations according to the first 5 scale points reflecting the condition of memory, orientation and relation with the reality. The disturbance of speech was dealt with separately and was determined by a sum of evaluations according to items 6b-6d.
Both absolute evaluations of the signs under investigation (the evaluation prior to treatment is a mean evaluation of the two examinations) and variations in them were analysed in the course of therapy. In doing so, only those changes that were beyond the range of evaluations obtained in two pre-treatment examinations were taken into consideration.
The test results reflected the condition of the patients at the time of the examination. Any changes in the metal state observed in the interval between the tests and disappearing by the moment of examination according to the scale were described in the section “Clinical Observations”.
The statistical data processing was carried out by means of Student's t-test and Fisher's “Fi” criterion.

[1] = change at 8 weeks vs K1, K2, per patient, listed as dimebon
[2] = marked (by more than 1 score), 8 weeks
[3] = mean of 14 patients, after 4 weeks
[4] = mean of 14 patients, after 8 weeks
[5] = of 11 patients with depressive symptoms prior to treatment, 4 weeks

## Cc1ccc2c(c1)c1c(n2CCc2ccc(C)nc2)CCN(C)C1 [No. 10, 2,8-dimethyl-5-[2-(6-methyl-3-pyridyl)ethyl]-2,3,4,5-tetrahydro-1H-pyrido[4,3-b]indole]
[1]
  2. Orientation in space, Changes (8 weeks): +1 and +0.5
  4. Memory for the present, Changes (8 weeks): −0.5 (2×) and +1 and +0.5 (4×)
  5. Life in the past, Changes (8 weeks): +0.5 (4×) and +1 (2×)
  6b. Difficulty in finding words, Changes (8 weeks): 0 and −0.5
  6c. Naming of objects, Changes (8 weeks): +0.5 (3×) and +1
  7. Concentration, Changes (8 weeks): −0.5 (2×) and +0.5
  8b. Lower spirits, Changes (8 weeks): +1.5 and +1 (3×) and +2 and −1 and +0.5 and −5
  9. Delirium, Changes (8 weeks): +1.5 and 0 (2×) and +2
  13. Irritability, Changes (8 weeks): +1.5 and +1 (2×) and −1.5 and 0
  14. Anxiety, Changes (8 weeks): +0.5 and +1 and −0.5
  16. Headache, Changes (8 weeks): +0.5 and +2 and +1.5 and −1
  17. Dizziness, Changes (8 weeks): 1 and −2 (2×) and +1 (2×) and −0.5
  18. Tearfulness, Changes (8 weeks): +1 and +2
  19. Spontaneous activity, Changes (8 weeks): +1 and 0 (3×) and −1
  20. Elementary self-service, Changes (8 weeks): +1 and −1
  6d. Performing instructions, Changes (8 weeks): −1.5 and −1 (2×) and +0.5 and +1 (2×) and 0
During treatment
  aggravation or emergence of irritability: Not a single observation
  first emergence of delirium: not a single case
[2]
  Speech functions (items 6b, c, d): deteriorations, %: 2.4%
  Speech functions (items 6b, c, d): deteriorations, abs.: 1
After 4 weeks
  Degree of irritability, M +/− m: 0.43 +/− 0.28 scores
  Values of cognitive functions, M +/− m: 5.5 +/− 0.79 score
  Marked depressive manifestation, M +/− m: 0.69 +/− 0.23 scores
  Intensity of headache, M +/− m: 0.45 +/− 0.29 scores
  number of patients with abatement or complete cessation of headaches: Five
  share of patients with abatement or complete cessation of headaches: 50%
After 8 weeks
  Degree of irritability, M +/− m: 0.29 +/− 5.17 scores
  Values of cognitive functions, M +/− m: 3.93 +/− 0.5 score
  Marked depressive manifestation, M +/− m: 0.69 +/− 0.18 scores
  Intensity of headache, M +/− m: 0.9 +/− 0.31 scores
  number of patients with abatement or complete cessation of headaches: 3 patients
  share of patients with abatement or complete cessation of headaches: 30%
Mean of 7 patients with unprofound (mild) dementia, 4 weeks, listed as Demibon
  Variations of cognitive function, M +/− m: +0.5 +/− 0.14 score
Mean of 7 patients with unprofound (mild) dementia, 4 weeks, listed as dimebon
  Variations of cognitive function, M +/− m: 0.5±0.14 score
Mean of 7 patients with unprofound (mild) dementia, 8 weeks
  Variations of cognitive function, M +/− m: +1.79 +/− 0.35 score
Mean of 14 patients, 4 weeks
  Variations of cognitive function, M +/− m: −0.43 +/− 0.15 score
  Variations of speech function, M +/− m: −0.18 +/− 0.14
Mean of 14 patients, 8 weeks
  Variations of cognitive function, M +/− m: +1.14 +/− 0.26 score
  Variations of speech function, M +/− m: −0.04 +/− 0.22
[3]
  Evaluation of speech function, M +/− m: 1.61 +/− 0.44 scores
  Values of cognitive function (sum of first 5 scale points), M +/− m: 8.32 +/− 0.93 score
[4]
  Evaluation of speech function, M +/− m: 1.39 +/− 0.47 scores
  Values of cognitive function (sum of first 5 scale points), M +/− m: 7.21 +/− 0.82 score
Moderate (by 1 score), 4 weeks
  Cognitive functions (first 5 scale points): improvements, %: 5.7%
  Cognitive functions (first 5 scale points): improvements, abs.: 4
  Speech functions (items 6b, c, d): deteriorations, %: 2.4%
  Speech functions (items 6b, c, d): deteriorations, abs.: 1
  Speech functions (items 6b, c, d): improvements, %: 7.14%
  Speech functions (items 6b, c, d): improvements, abs.: 3
Moderate (by 1 score), 8 weeks
  Cognitive functions (first 5 scale points): improvements, %: 8.6%
  Cognitive functions (first 5 scale points): improvements, abs.: 6
  Speech functions (items 6b, c, d): deteriorations, %: 4.8%
  Speech functions (items 6b, c, d): deteriorations, abs.: 2
  Speech functions (items 6b, c, d): improvements, %: 7.1%
  Speech functions (items 6b, c, d): improvements, abs.: 3
Of 5 patients with tearfulness prior to treatment, after four weeks
  number of patients showing no signs of tearfulness: 4 patients
[5]
  number of patients in whom the depression abated: 5 patients
  share of patients in whom the depression abated: 45%
Of 11 patients with depressive symptoms prior to treatment, 8 weeks
  number of patients with improvement of depression: 6 patients

Reference: US7071206B2, “Agents for treating neurodegenerative disorders” (Medivation, Inc., priority 1995, dated 2006)
